Reference: US20250213527A1, “FORMULATIONS OF PSILOCYBIN ANALOGS AND METHODS OF USE” (priority 2021, published 2025)
Entries after “also recorded” stand apart in the source; their conditions may differ. Where a name gives a salt, the structure may show the parent alone. Marks after values point to notes of the source that are not given here.

Tests used:
[1] = Maturation in 12 different solvents with thermal cycling, XRPD; format: physicochemical; conditions: slurries cycled between room temperature and 50 °C (4 hours each) for 3 days
Experimental: The resulting slurries were subjected to maturation with thermal cycling between room temperature and 50° C. (4 hours at each condition) for 3 days. Solids were then analysed by XRPD.

[2] = Solubility in FaSSGF (Fasted State Simulated Gastric Fluid) at 37 °C; format: physicochemical; conditions: free base component, average n=2
Experimental: Preparation of solutions: Solubility tests in FaSSGF were carried out at 37° C. and in water at room temperature for 2 hour and 6 hour timepoints. 50 mg solid was added to 0.5 mL media and incubated on an orbital shaker for 6 hours. (For free base in water 20 mg samples were used). Slurry/solution was sampled at 2 and 6 hours and aliquots were filtered through 0.45 micron PTFE filters. The filtrate was diluted 500 fold with the appropriate (same) media and injected on to UPLC.
(For free base in water ≥40 mg·mL^−1). […] Results were calculated based on a standard calibration curve of appropriate free base. Values quoted are for the free base component of each salt and are average of two (n=2) determinations.

[3] = Psilocin stability in 0.1 M acid solutions with or without metal ions, 40 °C; format: physicochemical; conditions: up to 24 h
Excerpt: Ascorbic acid (AsA), acetic acid (AcA), tartaric acid (TA), fumaric acid (FA), citric acid (CA), malic acid (MA), benzenesulfonic acid (BSA), stearic acid (SA), sodium citrate dihydrate, monosodium phosphate hydrate, disodium phosphate were purchased from Sigma Aldrich. Aluminum (III) chloride (AlCl3) and iron (III) chloride (FeCl3) were purchased from Sigma Aldrich. Antioxidants, i.e., ethylenediaminetetraacetic acid (EDTA), ascorbic acid (AsA), L-cysteine (Cys), sodium metabisulfite (NamBiSO3) and propyl gallate (PG) were purchased from Sigma Aldrich. Hydroxypropyl-β-cyclodextrin (CAVASOL® W7 HP, CAVITRON® W7 HP7) and methyl-β-cyclodextrin (CAVASOL® W7 M) were provided by DuPont.
The following chromatographic conditions were used:
Diluent. The diluent used in the below studies was prepared as follows: 100 mL of acetonitrile (ACN) was mixed with 800 mL of water and 100 mL of 1.0 M citric acid and mixed well to prepare 1 L of diluent.
The stability of psilocin in 0.1 M solutions of various acids was tested.
Test solutions: To prepare the test solutions, 0.1 M solutions of AsA, AcA, TA, FA, CA, MA, BSA, and SA were prepared in DI water.

[4] = Psilocin stability in 0.1 M sodium citrate buffer at 4, 23 and 40 °C; format: physicochemical
Experimental: (§1) Preparation of 0.1 M sodium citrate buffer (pH 6.01): 2.427 g of sodium citrate dihydrate and 0.336 g of citric acid were dissolved in 80 ml of DI water. The pH was adjusted to 6.0 using a 1 M NaOH solution. The final volume was adjusted to 100 ml.

[5] = Psilocin stability comparison between sodium citrate and phosphate buffer, 40 °C; format: physicochemical; conditions: 0.1 M, 24 h
Experimental: The effect of buffer type and pH on the stability of psilocin was assessed.
as §1
Preparation of 0.1 M phosphate buffer (pH 6.0 and pH 7.5): Monosodium phosphate (0.339 g, 0.002 moles) and disodium phosphate (2.021 g, 0.014 moles) were dissolved in 80 ml water and the pH was adjusted as necessary using sodium hydroxide or phosphoric acid. The volume was adjusted to 100 ml using water.
Test solutions: Psilocin (1 mg/ml) was mixed with (i) 0.1 M sodium citrate buffer (pH 6.01), (ii) 0.1 M phosphate buffer (pH 6.0), and (iii) 0.1 M phosphate buffer (pH 7.5) in a 1:1 v/v ratio.

[6] = Long-term (up to 25 days) psilocin stability in citric acid solution and sodium citrate buffer; format: physicochemical; conditions: 0.1 M
Experimental: The long-term stability (up to 25 days) of psilocin in a citric acid solution (0.1 M, pH 1.60) and a sodium citrate buffer (0.1 M, pH 6.01) at 4C and 23° C. was assessed.
as §1
Test solutions: Psilocin (1 mg/ml), was mixed with (i) sodium citrate buffer (0.1 M, pH 6.01) and (ii) citric acid solution (0.1 M, pH 1.60) in 1:1 v/v. The samples were stored at 4° C. and 23° C., and aliquots were sampled at designated timepoints (days 0, 7, 17, and 25).

[7] = Psilocin stability with cyclodextrin complexes, 40 °C; conditions: 1% w/w cyclodextrin, up to 24 h
[8] = Psilocin stability in dilute citric acid solution at 4, 23 and 40 °C
[9] = Psilocin stability with antioxidants against metal induced degradation, 40 °C; conditions: 20 μM antioxidant, up to 24 h
[10] = Plasma pharmacokinetics and bioavailability in rats, oral gavage and intravenous (bolus); conditions: for Tmax: rat plasma, label = analyte, IAD = immediately after dosing
[11] = Observation of isolated freeze dried solid; format: physicochemical; conditions: freeze dried citrate salt
Experimental: This gave an oil. Additional water was added until a solution was obtained. […] The obtained citrate salt was amorphous as shown by X-ray powder diffraction (XRPD) pattern in FIG. 37A.

[12] = Brain tissue concentrations in rats after intravenous dosing
[13] = Group 3, IV, psilocybin dosed 2.8 mg/kg

[2H]C([2H])([2H])N(C([2H])([2H])[2H])C([2H])([2H])C([2H])([2H])c1c[nH]c2cccc(O)c12 [Compound I-3j, Benzoate Salt of 3-(2-(bis(methyl-d3)amino)ethyl-1,1,2,2-d4)-1H-indol-4-ol]
crystalline form by XRPD after maturation in 12 different solvents [1]: retained their initial crystalline form (pattern 1)
Solubility FaSSGF 6 hours [2]: 12.79 mg/mL

CN(C)CCc1c[nH]c2cccc(O)c12 [Compound I-7, 3-(2-(dimethylamino)ethyl)-1H-indol-4-ol]
solution stability in 0.1 M acid solutions (solution-phase salts), with or without metal salts ([3]; all tested acids): excellent stability
solution stability of psilocin without acid [3]: nearly all psilocin being degraded within 24 hours
solution stability without acid in presence of Fe3+ and Al3+ metal ions [3]: significant psilocin degradation
effect of metal salts (Fe3+ and Al3+) in citrate buffer ([4]; 0.1 M sodium citrate buffer pH 6.01): no detrimental effects
solution stability in non-citrate buffered solutions with Fe3+ and Al3+ ([4]; 4, 23 and 40 °C): significant psilocin degradation
solution stability without sodium citrate buffer ([4]; 4, 23 and 40 °C): nearly all psilocin being degraded by the 18 hour time point
degradation of psilocin in 0.1 M sodium citrate buffer ([4]; 40 °C, up to 24 h): 10-15%
solution stability in 0.1 M sodium citrate buffer ([4]; pH 6.01, 4 °C and room temperature, up to 24 h): greatly stabilized psilocin
stability in phosphate buffer pH 6.0 versus pH 7.5 [5]: better stability than at pH 7.5
long-term stability in citric acid solution ([6]; pH 1.60, 4 °C and 23 °C): only minimal degradation
long-term stability in sodium citrate buffer, cold storage ([6]; pH 6.01, 4 °C): remained stable for up to 17 days
long-term stability in sodium citrate buffer, room temperature ([6]; pH 6.01, 23 °C): degradation of psilocin began within a week
stability with cyclodextrins against high temperature or metal induced degradation [7]: cyclodextrins did not impart stability
solution stability without citric acid ([8]; 4, 23 and 40 °C): nearly all psilocin being degraded by the 18 hour time point
solution stability without citric acid in presence of Fe3+ and Al3+ ([8]; 4, 23 and 40 °C): significant psilocin degradation
solution stability with small quantities of citric acid (pH 3.2) ([8]; 4 °C and room temperature (23 °C), up to 24 h): greatly enhanced the stability of psilocin
psilocin stabilization (% psilocin remaining) with small quantities of citric acid ([8]; 40 °C, 24 hour time point): 30%
stability against metal salts with antioxidants (EDTA, ascorbic acid, L-cysteine, sodium metabisulfite, propyl gallate) [9]: none of the antioxidants tested were able to provide stability
Tmax ([10]; Group 1, IV, psilocin + psilocin-d10 1 + 1 mg/kg): IAD
Tmax [10, 13]: IAD
onset, duration and variability of plasma exposure versus oral psilocybin ([10]; rats, oral): a faster onset, a shorter duration of effect, and less variability in drug exposure than oral psilocybin

CN(C)CCc1c[nH]c2cccc(O)c12 [Compound I-7a, benzenesulfonate salt of 3-(2-(dimethylamino)ethyl)-1H-indol-4-ol]
crystalline form by XRPD after maturation in 12 different solvents [1]: retained their initial crystalline form (pattern 1)

CN(C)CCc1c[nH]c2cccc(O)c12 [Compound I-7b, tartrate salt of 3-(2-(dimethylamino)ethyl)-1H-indol-4-ol]
crystalline form by XRPD after maturation in 12 different solvents [1]: retained their initial crystalline form

CN(C)CCc1c[nH]c2cccc(O)c12 [Compound I-7c, Hemi-Fumarate Salt of 3-(2-(dimethylamino)ethyl)-1H-indol-4-ol]
crystalline form by XRPD after maturation in 12 different solvents [1]: complex polymorphism with multiple crystalline patterns obtained
Solubility FaSSGF 6 hours [2]: ≥ 52.25* mg/mL

CN(C)CCc1c[nH]c2cccc(O)c12 [Compound I-7e, Citrate Salt of 3-(2-(dimethylamino)ethyl)-1H-indol-4-ol]
behaviour of isolated amorphous solid [11]: hygroscopic and rapidly became sticky

CN(C)CCc1c[nH]c2cccc(O)c12 [Compound I-7j, Benzoate Salt of 3-(2-(dimethylamino)ethyl)-1H-indol-4-ol]
crystalline form by XRPD after maturation in 12 different solvents [1]: retained their initial crystalline form; also recorded: the same pattern 1 by XRPD was observed
Solubility FaSSGF 6 hours [2]: 9.79 mg/mL

CN(C)CCc1c[nH]c2cccc(OP(=O)(O)O)c12 [psilocybin, Psilocybin]
brain concentrations of psilocybin versus plasma [12]: brain concentrations of psilocybin are low
bioavailability ([10]; male, Sprague Dawley, rat, plasma, po, 14 mg/kg): < 0.1%
Tmax [10, 13]: IAD
